Test results published in US20230365571A1, “COMPOUNDS AND COMPOSITIONS AS Sppl2a INHIBITORS” (Novartis AG, priority 2020, published 2023).

Assays:
Format in all cases: cell-based
[1] = target: T1, Sppl2a CD74 (Mus musculus, UniProt Q9JJF9); assay: CD74/p8 mouse whole blood assay, flow cytometry format; conditions: Balb/c mouse whole blood, 5 h, CD74 signal on gated live B cells
T1 construct: Mouse whole blood Balb/c mice (sodium citrate) was ordered by Bioreclamation LLC; tissue Bioreclamation LLC
T1 sequence (Q9JJF9 26-523): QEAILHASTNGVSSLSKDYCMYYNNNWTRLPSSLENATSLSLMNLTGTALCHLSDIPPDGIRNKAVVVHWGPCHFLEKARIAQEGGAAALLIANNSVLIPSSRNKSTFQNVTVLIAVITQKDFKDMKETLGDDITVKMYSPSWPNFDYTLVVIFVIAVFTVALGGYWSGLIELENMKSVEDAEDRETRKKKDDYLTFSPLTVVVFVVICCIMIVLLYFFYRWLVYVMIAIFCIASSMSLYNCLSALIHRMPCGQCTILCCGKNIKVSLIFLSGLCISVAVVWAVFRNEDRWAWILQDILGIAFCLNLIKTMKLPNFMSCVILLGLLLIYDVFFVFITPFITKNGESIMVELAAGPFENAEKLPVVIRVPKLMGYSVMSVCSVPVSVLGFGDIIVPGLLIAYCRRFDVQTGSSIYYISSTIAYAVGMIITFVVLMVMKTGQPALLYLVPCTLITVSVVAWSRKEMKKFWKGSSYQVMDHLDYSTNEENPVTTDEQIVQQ
Protocol: CD74/p8 Mouse Whole Blood Assay: Flow Cytometry Format
Mouse whole blood Balb/c mice (sodium citrate) was ordered by Bioreclamation LLC; USA. The blood was used the next day upon receipt (stored at 4° C.). 100 μL blood were transferred in 96 well format plate, where compounds, an 11 point dilutions down from 30 μM, to be tested were previously deposited. The plate was incubated for 5 h in the incubator at 37° C., 5% CO2 under continuous motion. After the incubation the blood was diluted with RBC Lysis Buffer (Amined; Cat. Nr 3-13F00-H or BD; Cat. Nr 555899). The solution was mixed by pipetting and incubated 10 min in the 37° C. incubator. The white blood cells were sedimented for 3 min at 2000 rpm. After removing the supernatant the cell pellet was resuspended and washed twice in RCB Buffer and kept≈ 5 min at room temperature, followed by a centrifugation for 2 min at 2000 rpm. The cell pellet was then resuspend in D-PBS and centrifuged twice. Finally, the cells were taken up in of D-PBS/0.5% inactivated fetal bovine serum/2 mM EDTA. The cell suspension was treated with Live/Dead fixable stain (Life Technologies, >470 nm version), B cells were identified by surface staining with an anti-B220 antibody coupled to APC fluorofor. After staining, the cells were extensively washed with PBS. The cells were permeabilized and fixed in FACS lysing buffer; (BD; #349202, dil 1:10 in water) and labelled with an anti CD74, FITC labelled antibody, washed once more with diluted FACS lysing buffer and spin down. The cell pellet was washed with D-PBS/0.5% inactivated fetal bovine serum/2 mM EDTA and PBS prior to the analysis in a flow cytometer. The compound concentrations were plotted against the intensity (medium fluorescence intensity) of the CD74 signal on the gated life B cell and IC50 were determined by fitting data for a 11 concentrations dose response.

[2] = target: T2, human SPPL2a (Homo sapiens, UniProt Q8TCT8); assay: Sppl2a TL (translocation) imaging assay in U-2 OS cells; parameters: expressed in transfected cells; conditions: U-2 OS cells expressing human SPPL2a and EGFP-TNFα(aa1-76) NTF substrate; 24 h
T2 sequence (Q8TCT8 26-520): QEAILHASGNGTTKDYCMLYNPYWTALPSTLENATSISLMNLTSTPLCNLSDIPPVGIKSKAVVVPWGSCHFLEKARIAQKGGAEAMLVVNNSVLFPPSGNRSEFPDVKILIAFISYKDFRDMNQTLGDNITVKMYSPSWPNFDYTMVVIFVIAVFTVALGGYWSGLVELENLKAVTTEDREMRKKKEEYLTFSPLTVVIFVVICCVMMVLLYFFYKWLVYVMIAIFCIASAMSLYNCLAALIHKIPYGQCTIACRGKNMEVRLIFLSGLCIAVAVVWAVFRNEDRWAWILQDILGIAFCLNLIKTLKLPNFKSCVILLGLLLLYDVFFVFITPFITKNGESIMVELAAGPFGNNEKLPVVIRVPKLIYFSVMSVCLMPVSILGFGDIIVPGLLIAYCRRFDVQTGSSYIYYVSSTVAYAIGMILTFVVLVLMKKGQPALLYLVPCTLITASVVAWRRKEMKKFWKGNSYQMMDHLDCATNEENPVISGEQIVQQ
Outline: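 U-2 OS cells stably expressing human SPPL2a plus doxycycline-induced EGFP-TNFα(aa1-76) NTF, treated 24 h at 37 °C with inhibitor (100 μM–1 nM, 11 points, 0.9% DMSO, 5 μg/mL doxycycline). Imaging of nuclear-minus-cytoplasmic EGFP intensity; % inhibition versus 0.5 μM LY-411,575 and DMSO, IC50 by nonlinear regression; CC50 from cell count.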

[3] = target: T2, human SPPL2a; assay: Sppl2a RGA (reporter gene assay) in HEK293 cells; parameters: expressed in transfected cells; host or cells: HEK293 (transient); conditions: NT-TNF-VP16-Gal4 substrate, Gal4-luciferase reporter, 24 h
Outline: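 Cleavage of a membrane-bound TNF N-terminal–VP16-Gal4 substrate drives Gal4-luciferase expression in transiently transfected HEK293 cells also expressing human SPPL2a. Compounds incubated 24 h, 37 °C, 5% CO2; luminescence read, normalized and plotted against concentration for IC50.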

Row | Structure (SMILES) | IC50 [1] [nM] | IC50 [2] [nM] | IC50 [3] [nM]
1 | CC[C@H](CNC(=O)c1onc(C)c1C)C(=O)N[C@@H]1C(=O)N2CCCN2Cc2ccccc21 [Example 25, 3,4-Dimethyl-N-((R)-2-(((S)-11-oxo-2,3,10,11-tetrahydro-1H,5H-benzo[d]pyrazolo [1,2-a][1,2]diazepin-10-yl)carbamoyl)butyl) isoxazole-5-carboxamide] | 420 | 24 | 9
2 | CC[C@H](CNC(=O)c1sc(C2=CCOCC2)nc1C)C(=O)N[C@@H]1C(=O)N2CCCN2Cc2ccccc21 [Example 26, 2-(3,6-Dihydro-2H-pyran-4-yl)-4-methyl-N-((R)-2-(((S)-11-oxo-2,3,10,11-tetrahydro-1H,5H-benzo[d]pyrazolo [1,2-a][1,2]diazepin-10-yl)carbamoyl)butyl) thiazole-5-carboxamide] | 2230 | 25 | 101
3 | Cc1nc(C(=O)NC(C)C)sc1C(=O)NC[C@H](C(=O)N[C@@H]1C(=O)N2CCCN2Cc2ccccc21)C1CC1 [Example 27, N^5-((R)-2-Cyclopropyl-3-oxo-3-(((S)-11-oxo-2,3,10,11-tetrahydro-1H,5H-benzo[d]pyrazolo [1,2-a][1,2]diazepin-10-yl)amino)propyl)-N^2-isopropyl-4-methylthiazole-2,5-dicarboxamide] | 947 | 26 | 5
4 | CC[C@H](CNC(=O)c1sc(-c2ccno2)nc1C)C(=O)N[C@@H]1C(=O)N2CCCN2Cc2ccccc21 [Example 32, 2-(Isoxazol-5-yl)-4-methyl-N-((R)-2-(((S)-11-oxo-2,3,10,11-tetrahydro-1H,5H-benzo[d]pyrazolo [1,2-a][1,2]diazepin-10-yl)carbamoyl)butyl) thiazole-5-carboxamide] | 174 | 37 | 10
5 | COCC[C@H](CNC(=O)c1sc(-c2cc(C)no2)nc1C)C(=O)N[C@@H]1C(=O)N2CCCN2Cc2ccccc21 [Example 42, N-((R)-4-Methoxy-2-(((S)-11-oxo-2,3,10,11-tetrahydro-1H,5H-benzo[d]pyrazolo [1,2-a][1,2]diazepin-10-yl)carbamoyl)butyl)-4-methyl-2-(3-methylisoxazol-5-yl)thiazole-5-carboxamide] | 847 | 62 | 27
6 | C[C@H](CNC(=O)c1sc(C2CC2)nc1Cl)C(=O)N[C@@H]1C(=O)N2CCCN2Cc2ccccc21 [Example 43, 4-Chloro-2-cyclopropyl-N-((R)-2-methyl-3-oxo-3-(((S)-11-oxo-2,3,10,11-tetrahydro-1H,5H-benzo[d]pyrazolo [1,2-a][1,2]diazepin-10-yl)amino)propyl) thiazole-5-carboxamide] | 1740 | 63 | 104
7 | CC[C@H](CNC(=O)c1sc(-c2cnn(C(F)F)c2)nc1Cl)C(=O)N[C@@H]1C(=O)N2CC3(CC3)CN2C(=O)c2ccccc21 [Example 45, 4-Chloro-2-(1-(difluoromethyl)-1H-pyrazol-4-yl)-N-((R)-2-(((S)-5,11-dioxo-10,11-dihydro-1H,3H,5H-spiro[benzo[d]pyr-azolo[1,2-a][1,2]diazepine-2,1′-cyclopropan]-10-yl)carbamoyl)butyl) thiazole-5-carboxamide] | 2510 | 78 | 86
8 | CC[C@H](CNC(=O)c1sc(C2=CCOCC2)nc1Cl)C(=O)N[C@@H]1C(=O)N2CCCN2Cc2ccccc21 [Example 46, 4-Chloro-2-(3,6-dihydro-2H-pyran-4-yl)-N-((R)-2-(((S)-11-oxo-2,3,10,11-tetrahydro-1H,5H-benzo[d]pyrazolo [1,2-a][1,2]diazepin-10-yl)carbamoyl)butyl) thiazole-5-carboxamide] | 2680 | 79 | 54
9 | CC[C@H](CNC(=O)c1sc(C2CC2)nc1C)C(=O)N[C@@H]1C(=O)N2CCCN2Cc2ccccc21 [Example 47, 2-Cyclopropyl-4-methyl-N-((R)-2-(((S)-11-oxo-2,3,10,11-tetrahydro-1H,5H-benzo[d]pyrazolo [1,2-a][1,2]diazepin-10-yl)carbamoyl)butyl) thiazole-5-carboxamide] | 741 | 83 | 41
10 | Cc1nc(C2CCOCC2)sc1C(=O)NC[C@H](C(=O)N[C@@H]1C(=O)N2CCCN2Cc2ccccc21)C(F)(F)F [Example 50, 4-Methyl-2-(tetrahydro-2H-pyran-4-yl)-N-((R)-3,3,3-trifluoro-2-(((S)-11-oxo-2,3,10,11-tetrahydro-1H,5H-benzo[d]pyrazolo [1,2-a][1,2]diazepin-10-yl)carbamoyl)pro-pyl)thiazole-5-carboxamide] | 1390 | 97 | 90
11 | COCc1nc(C)c(C(=O)NC[C@H](C(=O)N[C@@H]2C(=O)N3CCCN3Cc3ccccc32)C(F)(F)F)s1 [Example 52, 2-(Methoxymethyl)-4-methyl-N-((R)-3,3,3-trifluoro-2-(((S)-11-oxo-2,3,10,11-tetrahydro-1H,5H-benzo[d]pyrazolo [1,2-a][1,2]diazepin-10-yl)carbamoyl)pro-pyl)thiazole-5-carboxamide] | 148 | 118 | 30
12 | CCOc1nc(C)c(C(=O)NC[C@@H](CC)C(=O)N[C@@H]2C(=O)N3CCCN3Cc3ccccc32)s1 [Example 53, 2-Ethoxy-4-methyl-N-((R)-2-(((S)-11-oxo-2,3,10,11-tetrahydro-1H,5H-benzo[d]pyrazolo [1,2-a][1,2]diazepin-10-yl)carbamoyl)butyl) thiazole-5-carboxamide] | 279 | 125 | 22
13 | CC(C)C(=O)Nc1cc(NC(=O)C[C@@H](C)C(=O)N[C@@H]2C(=O)N3CCCN3Cc3ccccc32)n(C)n1 [Example 62, (R)—N^4-(3-Isobutyramido-1-methyl-1H-pyrazol-5-yl)-2-methyl-N^1—((S)-11-oxo-2,3,10,11-tetrahydro-1H,5H-benzo[d]pyrazolo[1,2-a][1,2]diazepin-10-yl)succinamide] | 317 | 0.3 | 57
14 | CC(C)C(=O)Nc1cc(NC(=O)C[C@H](C(=O)N[C@@H]2C(=O)N3CCCN3Cc3ccccc32)C2CCC2)n(C)n1 [Example 63, (S)-2-Cyclobutyl-N^4-(3-isobutyramido-1-methyl-1H-pyrazol-5-yl)-N^1-((S)-11-oxo-2,3,10,11-tetrahydro-1H,5H-benzo[d]pyrazolo [1,2-a][1,2]diazepin-10-yl)succinamide] | 343 | 0.6 | 11
